For 17 compounds, minimal effective concentration results are on record in patent US10570129B2 (Zoetis Services LLC, priority 2015, dated 2020).

One assay deals with Haemonchus contortus L3. In words: microbe, parasite or virus in culture. It is filed as cell-based. Particulars: Haemonchus contortus, 96 h, read-out: HcL3 Minimal Effective Concentration (MEC).
The test system of the next assay is D. immitis microfilariae. Nature of the assay: Dirofilaria immitis, microfilariae (DiMF) in vitro motility assay. The settings on record: Dirofilaria immitis, 72 h, read-out: DiMF minimally effective dose (MEC). It is filed as cell-based.

Turning to `N#Cc1ccc(/C=C/CN2CCc3c(c4cc(Cl)ccc4n3C(=O)NCc3ccnc(Cl)c3)C2)cc1` [Example 241, (E)-8-chloro-N-((2-chloropyridin-4-yl)methyl)-2-(3-(4-cyanophenyl)allyl)-1,2,3,4-tetrahydro-5H-pyrido[4,3-b]indole-5-carboxamide], the minimal effective concentration amounted to 0.4 µM with Haemonchus contortus L3 and 13.5 µM in the assay with D. immitis microfilariae.
For `O=C(NCc1ccnc(Cl)c1)n1c2c(c3cc(Cl)ccc31)CN(C/C=C/c1ccc(Cl)cc1)CC2` [Example 242, (E)-8-chloro-2-(3-(4-chlorophenyl)allyl)-N-((2-chloropyridin-4-yl)methyl)-1,2,3,4-tetrahydro-5H-pyrido[4,3-b]indole-5-carboxamide], in that order: 0.7 µM and 10 µM.
With `O=C(NCc1ccnc(Cl)c1)n1c2c(c3cc(Cl)ccc31)CN(C/C=C/c1ccc(Cl)c(Cl)c1)CC2` [Example 243, (E)-8-chloro-N-((2-chloropyridin-4-yl)methyl)-2-(3-(3,4-dichlorophenyl)allyl)-1,2,3,4-tetrahydro-5H-pyrido[4,3-b]indole-5-carboxamide], the figures for the minimal effective concentration in the assay on Haemonchus contortus L3 and in the assay on D. immitis microfilariae were 1.3 µM and 10 µM, respectively.
For `O=C(NCc1ccnc(Cl)c1)n1c2c(c3cc(Cl)ccc31)CN(C/C=C/c1ccc(F)cc1)CC2` [Example 244, (E)-8-chloro-N-((2-chloropyridin-4-yl)methyl)-2-(3-(4-fluorophenyl)allyl)-1,2,3,4-tetrahydro-5H-pyrido[4,3-b]indole-5-carboxamide], in that order: 0.7 µM and 10 µM.
For `O=C(NCc1ccnc(Cl)c1)n1c2c(c3cc(Cl)ccc31)CN(C/C=C/c1ccc(OC(F)(F)F)cc1)CC2` [Example 245, (E)-8-chloro-N-((2-chloropyridin-4-yl)methyl)-2-(3-(4-(trifluoromethoxy)-phenyl)allyl)-1,2,3,4-tetrahydro-5H-pyrido[4,3-b]indole-5-carboxamide], the minimal effective concentration is 3.3 µM in the assay with Haemonchus contortus L3 and 11.9 µM in the assay on D. immitis microfilariae.
Turning to `O=C(NCc1ccnc(Cl)c1)n1c2c(c3cc(Cl)ccc31)CN(C/C=C/c1ccc(C(F)(F)F)cc1)CC2` [Example 246, (E)-8-chloro-N-((2-chloropyridin-4-yl)methyl)-2-(3-(4-(trifluoromethyl)-phenyl)allyl)-1,2,3,4-tetrahydro-5H-pyrido[4,3-b]indole-5-carboxamide], the minimal effective concentration was 3.3 µM in the assay on Haemonchus contortus L3 and 10 µM in the assay on D. immitis microfilariae.
For the compound `O=C(NCc1ccnc(Cl)c1)n1c2c(c3cc(Cl)ccc31)CN(Cc1ccc3cc(Cl)ccc3n1)CC2` [Example 247, 8-chloro-N-((2-chloropyridin-4-yl)methyl)-2-((6-chloroquinolin-2-yl)methyl)-1,2,3,4-tetrahydro-5H-pyrido[4,3-b]indole-5-carboxamide], the results for the minimal effective concentration with Haemonchus contortus L3 and with D. immitis microfilariae were 1 µM and 1.8 µM, respectively.
Take `O=C(NCc1ccnc(Cl)c1)n1c2c(c3cc(Cl)ccc31)CN(C/C=C/c1ccncc1)CC2` [Example 248, (E)-8-chloro-N-((2-chloropyridin-4-yl)methyl)-2-(3-(pyridin-4-yl)allyl)-1,2,3,4-tetrahydro-5H-pyrido[4,3-b]indole-5-carboxamide]: the values for the minimal effective concentration in the assay with Haemonchus contortus L3 and with D. immitis microfilariae were 0.4 µM and 0.5 µM, respectively.
The corresponding values for `O=C(NCc1ccnc(F)c1)n1c2c(c3cc(Cl)ccc31)CN(C/C=C/c1ccc(Cl)c(F)c1)CC2` [Example 254, (E)-8-chloro-2-(3-(4-chloro-3-fluorophenyl)allyl)-N-((2-fluoropyridin-4-yl)methyl)-1,2,3,4-tetrahydro-5H-pyrido[4,3-b]indole-5-carboxamide] are 3.3 µM and 100 µM.
`O=C(NCc1ccnc(F)c1)n1c2c(c3cc(Cl)ccc31)CN(C/C=C/c1ccc(Cl)cc1F)CC2` [Example 255, (E)-8-chloro-2-(3-(4-chloro-2-fluorophenyl)allyl)-N-((2-fluoropyridin-4-yl)methyl)-1,2,3,4-tetrahydro-5H-pyrido[4,3-b]indole-5-carboxamide]: the results for the minimal effective concentration in the assay on Haemonchus contortus L3 and with D. immitis microfilariae were 0.3 µM and 18.2 µM, respectively.
In the case of `O=C(NCc1ccnc(F)c1)n1c2c(c3cc(Cl)ccc31)CN(C/C=C/c1ccc(F)cc1Cl)CC2` [Example 256, (E)-8-chloro-2-(3-(2-chloro-4-fluorophenyl)allyl)-N-((2-fluoropyridin-4-yl)methyl)-1,2,3,4-tetrahydro-5H-pyrido[4,3-b]indole-5-carboxamide], the minimal effective concentration is 0.2 µM with Haemonchus contortus L3 and 10 µM in the assay with D. immitis microfilariae.
On to `O=C(NCc1ccnc(F)c1)n1c2c(c3cc(Cl)ccc31)CN(C/C=C/c1ccc(F)cc1F)CC2` [Example 257, (E)-8-chloro-2-(3-(2,4-difluorophenyl)allyl)-N-((2-fluoropyridin-4-yl)methyl)-1,2,3,4-tetrahydro-5H-pyrido[4,3-b]indole-5-carboxamide], for which the minimal effective concentration in the assay on Haemonchus contortus L3 is 0.2 µM; in the assay on D. immitis microfilariae it was 5.7 µM.
For the compound `O=C(NCc1ccnc(F)c1)n1c2c(c3cc(Cl)ccc31)CN(C/C=C/c1ccc(F)c(Cl)c1)CC2` [Example 258, (E)-8-chloro-2-(3-(3-chloro-4-fluorophenyl)allyl)-N-((2-fluoropyridin-4-yl)methyl)-1,2,3,4-tetrahydro-5H-pyrido[4,3-b]indole-5-carboxamide], the minimal effective concentration turned out to be 10 µM in the assay with Haemonchus contortus L3 and 100 µM with D. immitis microfilariae.
Consider `O=C(NCc1ccnc(F)c1)n1c2c(c3cc(Cl)ccc31)CN(C/C=C/c1ccc(F)c(F)c1)CC2` [Example 259, (E)-8-chloro-2-(3-(3,4-difluorophenyl)allyl)-N-((2-fluoropyridin-4-yl)methyl)-1,2,3,4-tetrahydro-5H-pyrido[4,3-b]indole-5-carboxamide], for which the figures for the minimal effective concentration in the assay on Haemonchus contortus L3 and in the assay with D. immitis microfilariae were 0.1 µM and 3.3 µM, respectively.
`O=C(NCc1ccnc(F)c1)n1c2c(c3cc(Cl)ccc31)CN(C/C=C/c1ccc(Cl)cc1)CC2` [Example 260, (E)-8-chloro-2-(3-(4-chlorophenyl)allyl)-N-((2-fluoropyridin-4-yl)methyl)-1,2,3,4-tetrahydro-5H-pyrido[4,3-b]indole-5-carboxamide]: the minimal effective concentration was found to be 0.4 µM with Haemonchus contortus L3 and 10 µM in the assay with D. immitis microfilariae.
The corresponding values for `O=C(NCc1ccnc(F)c1)n1c2c(c3cc(Cl)ccc31)CN(C/C=C/c1ccc(Cl)c(Cl)c1)CC2` [Example 261, (E)-8-chloro-2-(3-(3,4-dichlorophenyl)allyl)-N-((2-fluoropyridin-4-yl)methyl)-1,2,3,4-tetrahydro-5H-pyrido[4,3-b]indole-5-carboxamide] are 1 µM and 10 µM.
For `O=C(NCc1ccnc(Cl)c1)n1c2c(c3cccc(Cl)c31)CN(C/C=C/c1ccc(C(F)(F)F)cn1)CC2` [Example 266, (E)-6-chloro-N-((2-chloropyridin-4-yl)methyl)-2-(3-(5-(trifluoromethyl)-pyridin-2-yl)allyl)-1,2,3,4-tetrahydro-5H-pyrido[4,3-b]indole-5-carboxamide], in that order: over 100 µM and 18.2 µM.
